Results taken from PubChem BioAssay AID248 (DTP/NCI, 2004).
Values joined by “and” are separate entries in the source; they are usually repeats but may differ in a detail not shown here. Equal entries are not always repeated. Inconclusive results and toxic doses are left out.

Test system: L1210 leukemia ip in BDF1 mice, survival T/C
Experiment: NCI In Vivo Anticancer Drug Screen. Data for tumor model L1210 Leukemia (intraperitoneal) in B6D2F1 (BDF1) mice
Conditions: endpoint: mean survival time, higher = longer survival
How it was run: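 Tumor cells were implanted, animals were treated, and survival was followed. The result divides the treated measurement by the vehicle-control measurement.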

[1] = dose: 50.0 mg/kg/injection, schedule: Q01DX001 (ip), vehicle: saline
[2] = dose: 100.0 mg/kg/injection, schedule: Q01DX001 (ip), vehicle: saline
[3] = dose: 200.0 mg/kg/injection, schedule: Q04DX003 (ip), vehicle: saline
[4] = dose: 100.0 mg/kg/injection, schedule: Q04DX003 (ip), vehicle: saline
[5] = dose: 400.0 mg/kg/injection, schedule: Q04DX003 (ip), vehicle: saline
[6] = dose: 50.0 mg/kg/injection, schedule: Q01DX001 (ip), vehicle: carboxymethylcellulose (CMC)
[7] = dose: 100.0 mg/kg/injection, schedule: Q01DX001 (ip), vehicle: carboxymethylcellulose (CMC)
[8] = dose: 200.0 mg/kg/injection, schedule: Q01DX001 (ip), vehicle: carboxymethylcellulose (CMC)
[9] = dose: 200.0 mg/kg/injection, schedule: Q01DX001 (ip), vehicle: saline
[10] = dose: 400.0 mg/kg/injection, schedule: Q01DX001 (ip), vehicle: saline

Cc1ccc(S(=O)(=O)N=Nc2c(O)[nH]c3ccccc23)cc1
T/C (dose: 75.0 mg/kg/injection, schedule: Q04DX002 (ip), vehicle: gum acacia): 93 % of control | T/C (dose: 150.0 mg/kg/injection, schedule: Q04DX002 (ip), vehicle: gum acacia): 93 % of control | T/C (dose: 300.0 mg/kg/injection, schedule: Q04DX002 (ip), vehicle: gum acacia): 100 % of control

c1nnc(NCNc2nncs2)s1
T/C (dose: 2.6 mg/kg/injection, schedule: Q01DX009 (ip), vehicle: Klucel (hydroxypropylcellulose) (HPC)): 115 % of control | T/C (dose: 6.0 mg/kg/injection, schedule: Q01DX009 (ip), vehicle: Klucel (hydroxypropylcellulose) (HPC)): 124 % of control | T/C (dose: 7.5 mg/kg/injection, schedule: Q01DX009 (ip), vehicle: saline): 122 % of control | T/C (dose: 12.0 mg/kg/injection, schedule: Q04DX003 (ip), vehicle: Klucel (hydroxypropylcellulose) (HPC)): 121 % of control | T/C (dose: 15.0 mg/kg/injection, schedule: Q01DX009 (ip), vehicle: saline): 120 % of control | T/C (dose: 18.0 mg/kg/injection, schedule: Q04DX003 (ip), vehicle: Klucel (hydroxypropylcellulose) (HPC)): 122 % of control | T/C (dose: 19.0 mg/kg/injection, schedule: Q01DX009 (ip), vehicle: saline): 154 % of control | T/C (dose: 20.0 mg/kg/injection, schedule: Q01DX009 (ip), vehicle: Klucel (hydroxypropylcellulose) (HPC)): 109 % of control | T/C (dose: 30.0 mg/kg/injection, schedule: Q01DX009 (ip), vehicle: Klucel (hydroxypropylcellulose) (HPC)): 95 % of control | T/C (dose: 30.0 mg/kg/injection, schedule: Q01DX009 (ip), vehicle: saline): 166 % of control | T/C (dose: 45.0 mg/kg/injection, schedule: Q01DX009 (ip), vehicle: Klucel (hydroxypropylcellulose) (HPC)): 87 % of control | T/C (dose: 45.0 mg/kg/injection, schedule: Q01DX009 (ip), vehicle: saline): 114 % of control | T/C [1]: 110 % of control | T/C (dose: 50.0 mg/kg/injection, schedule: Q04DX003 (ip), vehicle: saline): 111 % of control | T/C (dose: 60.0 mg/kg/injection, schedule: Q01DX009 (ip), vehicle: saline): 115 % of control | T/C [2]: 117 % of control | T/C [3]: 167 % of control and 168 % of control | T/C (dose: 300.0 mg/kg/injection, schedule: Q04DX003 (ip), vehicle: Klucel (hydroxypropylcellulose) (HPC)): 106 % of control | T/C (dose: 300.0 mg/kg/injection, schedule: Q04DX003 (ip), vehicle: saline): 113 % of control

CCCCNC(C)(C)C(SSSC(c1ccco1)C(C)(C)NCCCC)c1ccco1 (stereo not drawn)
T/C (dose: 50.0 mg/kg/injection, schedule: Q01DX009 (ip), vehicle: saline with Tween-80): 91 % of control | T/C (dose: 100.0 mg/kg/injection, schedule: Q01DX009 (ip), vehicle: saline with Tween-80): 96 % of control | T/C [4]: 98 % of control | T/C [3]: 100 % of control

O=[N+]([O-])c1cccc(-c2nn[nH]n2)c1
T/C [4]: 94 % of control | T/C [3]: 94 % of control | T/C [5]: 96 % of control

c1ccc(C2(c3ccccc3)CC([P+](c3ccccc3)(c3ccccc3)c3ccccc3)=NN2CC[P+](c2ccccc2)(c2ccccc2)c2ccccc2)cc1
T/C (dose: 1.56 mg/kg/injection, schedule: Q01DX001 (ip), vehicle: saline): 107 % of control | T/C (dose: 3.12 mg/kg/injection, schedule: Q01DX001 (ip), vehicle: saline): 91 % of control | T/C (dose: 6.25 mg/kg/injection, schedule: Q01DX001 (ip), vehicle: saline): 108 % of control and 91 % of control

CCOC(=O)c1cc([N+](=O)[O-])cnc1C
T/C (dose: 100.0 mg/kg/injection, schedule: Q01DX001 (ip), vehicle: saline sonified): 96 % of control | T/C (dose: 200.0 mg/kg/injection, schedule: Q01DX001 (ip), vehicle: saline sonified): 96 % of control | T/C (dose: 400.0 mg/kg/injection, schedule: Q01DX001 (ip), vehicle: saline sonified): 97 % of control

CC(=O)N(N=O)c1ccc(Cl)cc1[N+](=O)[O-]
T/C (dose: 50.0 mg/kg/injection, schedule: Q01DX009 (ip), vehicle: saline): 101 % of control | T/C (dose: 100.0 mg/kg/injection, schedule: Q01DX009 (ip), vehicle: saline): 104 % of control

CC(=O)C(C(=O)c1ccccc1)c1cc(NS(=O)(=O)N(C)C)ccc1NS(=O)(=O)N(C)C (stereo not drawn)
T/C (dose: 25.0 mg/kg/injection, schedule: Q01DX001 (ip), vehicle: saline with Tween-80): 98 % of control | T/C (dose: 50.0 mg/kg/injection, schedule: Q01DX001 (ip), vehicle: saline with Tween-80): 93 % of control | T/C (dose: 100.0 mg/kg/injection, schedule: Q01DX001 (ip), vehicle: saline with Tween-80): 100 % of control

C#CCCCCCCCCCC(=O)OC
T/C (dose: 100.0 mg/kg/injection, schedule: Q01DX009 (ip), vehicle: Klucel (hydroxypropylcellulose) (HPC)): 102 % of control | T/C (dose: 100.0 mg/kg/injection, schedule: Q04DX003 (ip), vehicle: Klucel (hydroxypropylcellulose) (HPC)): 103 % of control | T/C (dose: 200.0 mg/kg/injection, schedule: Q01DX009 (ip), vehicle: Klucel (hydroxypropylcellulose) (HPC)): 102 % of control | T/C (dose: 200.0 mg/kg/injection, schedule: Q04DX003 (ip), vehicle: Klucel (hydroxypropylcellulose) (HPC)): 95 % of control | T/C (dose: 400.0 mg/kg/injection, schedule: Q01DX009 (ip), vehicle: Klucel (hydroxypropylcellulose) (HPC)): 104 % of control | T/C (dose: 400.0 mg/kg/injection, schedule: Q04DX003 (ip), vehicle: Klucel (hydroxypropylcellulose) (HPC)): 98 % of control

Cc1cc(N(CCOS(C)(=O)=O)CCOS(C)(=O)=O)ccc1C=Nc1ccc(-c2csc(Cc3ccccc3)n2)cc1
T/C (dose: 6.25 mg/kg/injection, schedule: Q01DX009 (ip), vehicle: Klucel (hydroxypropylcellulose) (HPC)): 105 % of control | T/C (dose: 12.5 mg/kg/injection, schedule: Q01DX009 (ip), vehicle: Klucel (hydroxypropylcellulose) (HPC)): 110 % of control | T/C (dose: 25.0 mg/kg/injection, schedule: Q01DX009 (ip), vehicle: Klucel (hydroxypropylcellulose) (HPC)): 122 % of control

O=[N+]([O-])c1ccc(CSCc2ccccc2)cc1
T/C [6]: 102 % of control | T/C [7]: 102 % of control | T/C [8]: 109 % of control | T/C (dose: 400.0 mg/kg/injection, schedule: Q01DX001 (ip), vehicle: carboxymethylcellulose (CMC)): 98 % of control

c1ccc(-c2cnc[nH]2)cc1
T/C [6]: 100 % of control | T/C [7]: 109 % of control | T/C [8]: 117 % of control

CCOC(=O)c1ccc2ccccc2n1
T/C (dose: 75.0 mg/kg/injection, schedule: Q01DX001 (ip), vehicle: saline): 109 % of control | T/C (dose: 150.0 mg/kg/injection, schedule: Q01DX001 (ip), vehicle: saline): 96 % of control

CC#N.CC#N.[Cl][Pt][Cl]
T/C (dose: 6.25 mg/kg/injection, schedule: Q04DX003 (ip), vehicle: water): 119 % of control | T/C (dose: 12.5 mg/kg/injection, schedule: Q04DX003 (ip), vehicle: water): 117 % of control | T/C (dose: 25.0 mg/kg/injection, schedule: Q04DX003 (ip), vehicle: water): 122 % of control | T/C (dose: 50.0 mg/kg/injection, schedule: Q04DX003 (ip), vehicle: water): 118 % of control

O=C(O)CCn1c(=O)n(CCC(=O)O)c(=O)n(CCC(=O)O)c1=O
T/C (dose: 100.0 mg/kg/injection, schedule: Q04DX002 (ip), vehicle: Klucel (hydroxypropylcellulose) (HPC)): 100 % of control | T/C (dose: 200.0 mg/kg/injection, schedule: Q04DX002 (ip), vehicle: Klucel (hydroxypropylcellulose) (HPC)): 93 % of control | T/C (dose: 400.0 mg/kg/injection, schedule: Q04DX002 (ip), vehicle: Klucel (hydroxypropylcellulose) (HPC)): 86 % of control

Nc1c[nH]c(=S)s1
T/C (dose: 100.0 mg/kg/injection, schedule: Q01DX001 (ip), vehicle: Klucel (hydroxypropylcellulose) (HPC)): 94 % of control | T/C (dose: 200.0 mg/kg/injection, schedule: Q01DX001 (ip), vehicle: Klucel (hydroxypropylcellulose) (HPC)): 99 % of control

C#CCN(CC#C)C(=O)Nc1ccc(Cl)cc1
T/C (dose: 25.0 mg/kg/injection, schedule: Q04DX002 (ip), vehicle: saline with Tween-80): 96 % of control | T/C (dose: 50.0 mg/kg/injection, schedule: Q04DX002 (ip), vehicle: saline with Tween-80): 96 % of control | T/C (dose: 100.0 mg/kg/injection, schedule: Q04DX002 (ip), vehicle: saline with Tween-80): 99 % of control and 106 % of control

CS(=O)(=O)n1c(CCl)nc2ccccc21
T/C [1]: 96 % of control | T/C [2]: 104 % of control | T/C [9]: 102 % of control | T/C [10]: 102 % of control

CCCCC#CCl
T/C [2]: 101 % of control | T/C [9]: 94 % of control | T/C [10]: 94 % of control

NC(CCc1cc(O)ccc1O)C(=O)O (stereo not drawn)
T/C [4]: 105 % of control | T/C [3]: 107 % of control | T/C [5]: 98 % of control

C=CCC(=O)OCC
T/C (dose: 222.0 mg/kg/injection, schedule: Q01DX Z (ip), vehicle: saline): 94 % of control | T/C (dose: 333.0 mg/kg/injection, schedule: Q01DX Z (ip), vehicle: saline): 108 % of control | T/C (dose: 500.0 mg/kg/injection, schedule: Q01DX Z (ip), vehicle: saline): 94 % of control
